Patent US11667652B2, “MCL1 inhibitors” (Gilead Sciences, Inc., priority 2019, dated 2023)
Where two headings read alike, the source gives them in different places.

Tests used:
[1] = biological target: MCL1/Bim (Homo sapiens (Human), UniProt Q07820); test: MCL1/Bim Binding AlphaLISA Assay; settings: recombinant human 6xHis-MCL1 (171-327), biotinylated Bim peptide (51-76)
Summary of the method: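 AlphaLISA with 0.0625 nM human 6×His-MCL1 (171-327) and 0.0625 nM biotinylated Bim (51-76) peptide in 20 mM Hepes pH 7.5, 150 mM NaCl, 0.002% Brij 35, 1 mM DTT, 0.01% BSA. Compound preincubated with MCL1 1 h, Bim added 2 h, then acceptor and donor beads 1 h each; % inhibition versus DMSO and no-protein/peptide controls.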

[2] = tested on: SKBR3 cells; test: SKBR3 Cell Viability Assay; format: cell-based; settings: CellTiter Glo, read-out: MCL1 CV SKBR3 EC50
Summary of the method: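 SKBR3 cells (6,000/well, McCoy's 5A + 10% FBS) were added onto pre-spotted serial compound dilutions and incubated 72 h at 37° C, 5% CO2. Viability was read by CellTiter-Glo luminescence, with % inhibition normalised to DMSO (negative) and 10 μM puromycin (positive).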

[3] = Homo sapiens, SK-BR-3, 72 hours

Sequence of MCL1/Bim (Q07820 171-327): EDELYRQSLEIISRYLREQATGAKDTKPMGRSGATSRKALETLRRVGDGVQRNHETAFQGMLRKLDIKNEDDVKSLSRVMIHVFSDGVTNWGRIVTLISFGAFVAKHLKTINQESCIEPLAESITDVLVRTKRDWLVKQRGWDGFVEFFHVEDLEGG

COc1nn(C)cc1C(=O)N[S@@]1(=O)=NC(=O)c2ccc3c(c2)N(C[C@@H]2CC[C@H]2[C@](O)(CCN2CCOCC2)/C=C/C[C@H](C)C1)C[C@@]1(CCCc2cc(Cl)ccc21)CO3 [Example 114]
IC50 [1]: 0.319 nM | EC50 ([2]; 72 hours): 51 nM

COc1nn(C)cc1C(=O)N[S@@]1(=O)=NC(=O)c2ccc3c(c2)N(C[C@@H]2CC[C@H]2[C@](CN2CCN(C4COC4)CC2)(OC)/C=C/C[C@H](C)C1)C[C@@]1(CCCc2cc(Cl)ccc21)CO3 [Example 115]
IC50 [1]: 0.029 nM | EC50 [2, 3]: 16 nM

COc1nn(C)cc1C(=O)N[S@@]1(=O)=NC(=O)c2ccc3c(c2)N(C[C@@H]2CC[C@H]2[C@@](CN2CCN(C4COC4)CC2)(OC)/C=C/C[C@H](C)C1)C[C@@]1(CCCc2cc(Cl)ccc21)CO3 [Example 116]
IC50 [1]: 0.102 nM | EC50 [2, 3]: 13.4 nM

COc1nn(C)cc1C(=O)N[S@@]1(=O)=NC(=O)c2ccc3c(c2)N(C[C@@H]2CC[C@H]2[C@@](CN2CC(OC)C2)(OC)/C=C/C[C@H](C)C1)C[C@@]1(CCCc2cc(Cl)ccc21)CO3 [Example 117]
IC50 [1]: 0.067 nM | EC50 [2, 3]: 23.9 nM

COc1nn(C)cc1C(=O)N[S@@]1(=O)=NC(=O)c2ccc3c(c2)N(C[C@@H]2CC[C@H]2[C@@H](OC)/C=C/[C@H](NC(C)=O)[C@H](C)C1)C[C@@]1(CCCc2cc(Cl)ccc21)CO3 [Example 118]
IC50 [1]: 0.634 nM | EC50 ([2]; 72 hours): 2520 nM

COc1nn(C)cc1C(=O)N[S@@]1(=O)=NC(=O)c2ccc3c(c2)N(C[C@@H]2CC[C@H]2/C=C/[C@@H](O)[C@H](NC(C)=O)[C@H](C)C1)C[C@@]1(CCCc2cc(Cl)ccc21)CO3 [Example 119]
IC50 [1]: 0.035 nM | EC50 ([2]; 72 hours): 244 nM

COc1nn(C)cc1C(=O)N[S@@]1(=O)=NC(=O)c2ccc3c(c2)N(C[C@@H]2CC[C@H]2[C@@H](OC)/C=C/[C@@](C)(O)[C@H](C)C1)C[C@@]1(CCCc2cc(Cl)ccc21)CO3 [Example 120]
IC50 [1]: 0.034 nM | EC50 ([2]; 72 hours): 35.2 nM

COc1nn(C)cc1C(=O)N[S@@]1(=O)=NC(=O)c2ccc3c(c2)N(C[C@@H]2CC[C@H]2[C@H](OC)/C=C/[C@@](C)(O)[C@H](C)C1)C[C@@]1(CCCc2cc(Cl)ccc21)CO3 [Example 121]
IC50 [1]: 0.047 nM | EC50 ([2]; 72 hours): 67.9 nM

COc1nn(C)cc1C(=O)N[S@@]1(=O)=NC(=O)c2ccc3c(c2)N(C[C@@H]2CC[C@H]2[C@@H](OC)/C=C/[C@@](C)(OC)[C@H](C)C1)C[C@@]1(CCCc2cc(Cl)ccc21)CO3 [Example 122]
IC50 [1]: 0.03 nM | EC50 [2, 3]: 17.7 nM

COc1nn(C)cc1C(=O)N[S@@]1(=O)=NC(=O)c2ccc3c(c2)N(C[C@@H]2CC[C@H]2[C@@H](OC)/C=C/[C@](C)(OC)[C@H](C)C1)C[C@@]1(CCCc2cc(Cl)ccc21)CO3 [Example 123]
IC50 [1]: 0.135 nM | EC50 [2, 3]: 69.7 nM

COc1nn(C)cc1C(=O)N[S@@]1(=O)=NC(=O)c2ccc3c(c2)N(C[C@@H]2CC[C@H]2/C=C/C=C\[C@H](C)C1)C[C@@]1(CCCc2cc(Cl)ccc21)CO3 [Example 131]
IC50 [1]: 0.087 nM | EC50 [2, 3]: 546 nM

COc1nn(C)cc1C(=O)N[S@@]1(=O)=NC(=O)c2ccc3c(c2)N(C[C@@H]2CC[C@H]2[C@H](OC)[C@@H](OC)/C=C\[C@H](C)C1)C[C@@]1(CCCc2cc(Cl)ccc21)CO3 [Example 132]
IC50 [1]: 0.833 nM | EC50 [2, 3]: 1020 nM

COc1nn(C)cc1C(=O)N[S@@]1(=O)=NC(=O)c2ccc3c(c2)N(C[C@@H]2CC[C@H]2[C@@H](OC)[C@H](OC)/C=C\[C@H](C)C1)C[C@@]1(CCCc2cc(Cl)ccc21)CO3 [Example 133]
IC50 [1]: 0.643 nM | EC50 [2, 3]: 1370 nM

COc1nn(C)cc1C(=O)N[S@@]1(=O)=NC(=O)c2ccc3c(c2)N(C[C@@H]2CC[C@H]2[C@@H](OC)[C@H]2CN(C)[C@H]4CO[C@H](C(C)C1)[C@@H]24)C[C@@]1(CCCc2cc(Cl)ccc21)CO3 (stereo partly shown) [Example 134]
IC50 [1]: 0.069 nM | EC50 ([2]; 72 hours): 101 nM

COc1nn(C)cc1C(=O)N[S@@]1(=O)=NC(=O)c2ccc3c(c2)N(C[C@@H]2CC[C@H]2[C@@H](OC)C[C@H]2CCO[C@@H]2[C@H](C)C1)C[C@@]1(CCCc2cc(Cl)ccc21)CO3 [Example 135]
IC50 [1]: 0.057 nM | EC50 [2, 3]: 92.2 nM

COc1nn(C)cc1C(=O)N[S@@]1(=O)=NC(=O)c2ccc3c(c2)N(C[C@@H]2CC[C@H]2[C@H]2OCC[C@@H]2CC[C@H](C)C1)C[C@@]1(CCCc2cc(Cl)ccc21)CO3 [Example 136]
IC50 [1]: 0.096 nM | EC50 [2, 3]: 67.2 nM

COc1nn(C)cc1C(=O)N[S@@]1(=O)=NC(=O)c2ccc3c(c2)N(C[C@@H]2CC[C@H]2[C@@H](OC)C[C@H]2CC(O)O[C@@H]2[C@H](C)C1)C[C@@]1(CCCc2cc(Cl)ccc21)CO3 (stereo partly shown) [Example 139]
IC50 [1]: 0.071 nM | EC50 [2, 3]: 198 nM

COc1nn(C)cc1C(=O)N[S@@]1(=O)=NC(=O)c2ccc3c(c2)N(C[C@@H]2CC[C@H]2[C@@H](OC)C[C@H]2CC(=O)O[C@@H]2[C@H](C)C1)C[C@@]1(CCCc2cc(Cl)ccc21)CO3 [Example 140]
IC50 [1]: 0.067 nM | EC50 [2, 3]: 138 nM

C=CC[C@@H]1C[C@@H]2C[C@H](OC)[C@@H]3CC[C@H]3CN3C[C@@]4(CCCc5cc(Cl)ccc54)CCc4ccc(cc43)C(=O)N=[S@](=O)(NC(=O)c3cn(C)nc3OC)C[C@@H](C)[C@H]2O1 [Example 141]
IC50 [1]: 0.677 nM | EC50 ([2]; 72 hours): 882 nM

COc1nn(C)cc1C(=O)N[S@@]1(=O)=NC(=O)c2ccc3c(c2)N(C[C@@H]2CC[C@H]2[C@@H](OC)C[C@H]2C[C@H](CCN(C)C)O[C@@H]2[C@H](C)C1)C[C@@]1(CCCc2cc(Cl)ccc21)CO3 [Example 142]
IC50 [1]: 0.06 nM | EC50 ([2]; 72 hours): 106 nM

COc1nn(C)cc1C(=O)N[S@@]1(=O)=NC(=O)c2ccc3c(c2)N(C[C@@H]2CC[C@H]2[C@@H](OC)CC2CC(CCN(C)C)OC2[C@H](C)C1)C[C@@]1(CCCc2cc(Cl)ccc21)CO3 (stereo partly shown) [Example 143]
IC50 [1]: 0.037 nM | EC50 ([2]; 72 hours): 37.5 nM

COc1nn(C)cc1C(=O)N[S@@]1(=O)=NC(=O)c2ccc3c(c2)N(C[C@@H]2CC[C@H]2[C@@H](OC)C[C@@H]2[C@H](OC[C@H]2C)[C@H](C)C1)C[C@@]1(CCCc2cc(Cl)ccc21)CO3 [Example 145]
IC50 [1]: 0.189 nM | EC50 ([2]; 72 hours): 178 nM

COc1nn(C)cc1C(=O)N[S@@]1(=O)=NC(=O)c2ccc3c(c2)N(C[C@@H]2CC[C@H]2[C@@H](OC)C[C@@H]2[C@H](OC[C@H]2C)[C@H](C)C1)C[C@@]1(CCCc2ccccc21)CO3 [Example 147]
IC50 [1]: 0.394 nM | EC50 ([2]; 72 hours): 532 nM

COc1nn(C)cc1C(=O)N[S@@]1(=O)=NC(=O)c2ccc3c(c2)N(C[C@@H]2CC[C@H]2[C@@H](OC)C[C@@H]2[C@H](OC[C@@H]2C)[C@H](C)C1)C[C@@]1(CCCc2ccccc21)CO3 [Example 148]
IC50 [1]: 0.426 nM | EC50 ([2]; 72 hours): 1720 nM

COc1nn(C)cc1C(=O)N[S@@]1(=O)=NC(=O)c2ccc3c(c2)N(C[C@@H]2CC[C@H]2[C@@H](OC)/C=C/[C@@H]2OCC[C@@H]1[C@H]2C)C[C@@]1(CCCc2cc(Cl)ccc21)CC3 [Example 149]
IC50 [1]: 0.378 nM | EC50 [2, 3]: 287 nM

COc1nn(C)cc1C(=O)N[S@@]1(=O)=NC(=O)c2ccc3c(c2)N(C[C@@H]2CC[C@H]2[C@H]2OC(=O)C[C@@H]2CC[C@H](C)C1)C[C@@]1(CCCc2cc(Cl)ccc21)CC3 [Example 151]
IC50 [1]: 0.056 nM | EC50 [2, 3]: 422 nM

COc1nn(C)cc1C(=O)N[S@@]1(=O)=NC(=O)c2ccc3c(c2)N(C[C@@H]2CC[C@H]2[C@H]2O[C@H](CCN(C)C)C[C@@H]2CC[C@H](C)C1)C[C@@]1(CCCc2cc(Cl)ccc21)CO3 [Example 152]
IC50 [1]: 0.027 nM | EC50 [2, 3]: 51.4 nM

COc1nn(C)cc1C(=O)N[S@@]1(=O)=NC(=O)c2ccc3c(c2)N(C[C@@H]2CC[C@H]2/C=C/[C@@H]2OCCO[C@@H]2[C@H](C)C1)C[C@@]1(CCCc2cc(Cl)ccc21)CO3 [Example 153]
IC50 [1]: 0.189 nM | EC50 ([2]; 72 hours): 1000 nM

COc1nn(C)cc1C(=O)N[S@@]1(=O)=NC(=O)c2ccc3c(c2)N(C[C@@H]2CC[C@H]2/C=C/[C@H]2OCCO[C@@H]2[C@H](C)C1)C[C@@]1(CCCc2cc(Cl)ccc21)CO3 [Example 154]
IC50 [1]: 0.321 nM | EC50 ([2]; 72 hours): 1470 nM

COc1nn(C)cc1C(=O)N[S@@]1(=O)=NC(=O)c2ccc3c(c2)N(C[C@@H]2CC[C@H]2[C@@H]2/C=C/[C@H](OCCCC(=O)O2)[C@H](C)C1)C[C@@]1(CCCc2cc(Cl)ccc21)CO3 [Example 156]
IC50 [1]: 0.393 nM | EC50 ([2]; 72 hours): 368 nM

COc1nn(C)cc1C(=O)N[S@@]1(=O)=NC(=O)c2ccc3c(c2)N(C[C@@H]2CC[C@H]2[C@@H]2/C=C/[C@@H](OCCCC(=O)O2)[C@H](C)C1)C[C@@]1(CCCc2cc(Cl)ccc21)CO3 [Example 157]
IC50 [1]: 0.366 nM | EC50 ([2]; 72 hours): 229 nM

CCO/C1=C/C[C@H](OC)[C@@H]2CC[C@H]2CN2C[C@@]3(CCCc4cc(Cl)ccc43)COc3ccc(cc32)C(=O)N=[S@](=O)(NC(=O)c2cn(C)nc2OC)[C@H](C)[C@H]1C [Example 158]
IC50 [1]: 3.86 nM | EC50 ([2]; 72 hours): 1950 nM
